For one experiment, the system named is Jurkat cells. Description: PMA & ionomycin-induced cytokine production in Jurkat cells. The format is cell-based.
The next experiment concerns C57BL/6 mice. Description: Bleomycin induced acute lung inflammation. The format is in vivo. The source says:
In order to determine the activity of the exemplary all-D retro-inverso IB(s) peptide XG-102 (SEQ ID NO: 11) in the treatment of Chronic Obstructive Pulmonary Disease (COPD) XG-102 (SEQ ID NO: 11) is used in an animal model of Bleomycin induced acute lung inflammation and fibrosis. The protocol of bleomycin induced inflammation and fibrosis has been described before in the literature. The aim of the Experiment was to investigate the effect of XG-102 (SEQ ID NO: 11) by subcutaneous (s.c.) route on neutrophil recruitment in broncho alveolar lavage (BAL) and lung in bleomycin induced inflammation and fibrosis: • at 1 day after a single bleomycin administration (10 mg/kg) • and at day 10 with the development of fibrosis 1) Method and Experimental Approach • The test compound XG-102 (SEQ ID NO: 11) at two doses and vehicle control were given s.c. with a single intranasal administration of bleomycin and mice were analyzed after 1 and 10 days. The animals used in the model were 10 C57BL/6 mice (8 weeks old) per group. The experimental groups included vehicle, 0.001 mg/kg XG-102 (SEQ ID NO: 11) and 0.1 mg/kg XG-102 (SEQ ID NO: 11), and the treatment consisted of repeated sub-cutaneous administration of XG-102 (SEQ ID NO: 11), prior to bleomycin administration then every 3 days. Acute lung inflammation at 24 h was monitored by BAL lavage, cytology, cell counts, and lung myeloperoxidase activity. The effect of the compound was compared with vehicle controls. Lung fibrosis was assessed histologically using hematoxylin and eosin staining at day 10 after the single dose of bleomycin. 1.1) Bleomycin Administration • Bleomycin sulfate in saline (10 mg/kg body weight) from Belton Laboratories (Montrouge, France) or saline were given through the airways by nasal instillation in a volume of 40 μL under light ketamine-xylasine anesthesia. The groups for Bleomycin administration for both bleomycin induced inflammation and fibrosis included: Vehicle, 0.001 mg/kg XG-102 (SEQ ID NO: 11) and 0.1 mg/kg XG-102 (SEQ ID NO: 11). The route for bleomycin induced inflammation was subcutaneous (s.c.) route, and administration occurred as a single dose. The route for bleomycin induced fibrosis was subcutaneous (s.c.) route, and administration occurred 3 times in 10 days. 1.2) Bronchioalveolar Lavage Fluid (BAL F) • After incision of the trachea, a plastic cannula was inserted and airspaces were washed using 0.3 ml of PBS solution, heated to 37° C. The samples collected were dispatched in 2 fractions: the first one (1 ml corresponding to the 2 first lavages) was used for mediator measurement and the second one for the cell determination (4 ml). The first fraction was centrifuged (600 g for 10 min) and supernatant was fractionated and kept at −80° C. until mediator determination. The cell pellet was then resuspended in 0.4 ml sterile NaCl, 0.9%, and pooled with the second fraction and was used for cell counts. […] 1.4) Cell Count and Determination • Total cell count was determined in BAL fluid using a Malassez hemocytometer. […] 1.5) TNF Measurement • TNF level in BALF was determined using ELISA assay kits (Mouse DuoSet, R&D system, Minneapolis, USA) according to manufacturer's instructions. […] 1.6) MPO-Measurement • MPO-levels were measured upon administration of XG-102. […]

Molecules are shown by their SMILES. “Also recorded” adds a separate entry of the source.

Take `CC(C)C[C@@H](NC(=O)[C@@H](Cc1ccccc1)NC(=O)[C@H]1CCCN1C(=O)[C@@H](CCC(N)=O)NC(=O)[C@H](NC(=O)[C@H]1CCCN1C(=O)[C@@H](CCCNC(=N)N)NC(=O)[C@@H](CO)NC(=O)[C@@H](CCC(N)=O)NC(=O)[C@H](N)CC(=O)O)C(C)C)C(=O)N[C@H](CC(N)=O)C(=O)N[C@H](CC(C)C)C(=O)N[C@@H](C(=O)N[C@@H](C(=O)N1CCC[C@@H]1C(=O)N[C@H](CCCNC(=N)N)C(=O)N[C@H](CCCCN)C(=O)N1CCC[C@@H]1C(=O)N[C@H](CCCNC(=N)N)C(=O)N1CCC[C@@H]1C(=O)N1CCC[C@@H]1C(=O)N[C@H](CCCNC(=N)N)C(=O)N[C@H](CCCNC(=N)N)C(=O)N[C@H](CCCNC(=N)N)C(=O)N[C@H](CCC(N)=O)C(=O)N[C@H](CCCNC(=N)N)C(=O)N[C@H](CCCNC(=N)N)C(=O)N[C@H](CCCCN)C(=O)N[C@H](CCCCN)C(=O)N[C@H](CCCNC(=N)N)C(=O)NCC(=O)O)[C@H](C)O)[C@H](C)O` [XG-102]: the “PMA & ionomycin-induced IFNg, IL-6 and IL-2 production” value with Jurkat cells was “inhibits cytokine release in both myeloid and lymphoid cell lines”. Also, the “neutrophil recruitment and other cell types in bronchioalveolar space” value in the experiment with C57BL/6 mice (0.001 mg/kg s.c., single dose, 1 day) is on record as “has no effect on neutrophil recruitment or other cell types”. In the experiment on C57BL/6 mice (0.1 mg/kg s.c., single dose, 1 day), the “neutrophil recruitment and total cells in bronchioalveolar lavage space” value is “reduces significantly the neutrophil recruitment and the number of total cells recruited”. Besides, in the experiment on C57BL/6 mice (acute inflammation study), the “histology, inflammatory cell accumulation” value is listed as “a decrease of the inflammatory cell accumulation in the peribronchial space”. Also, the “MPO levels in the lung” value in the experiment with C57BL/6 mice (s.c., MPO not significantly induced after bleomycin) is “only little effect on the MPO levels in the lung; also recorded: no effect on the MPO levels in the lung”. The “TNF level in BALF” value in the experiment with C57BL/6 mice (s.c., TNF levels very low after BLM) was “a trend to reduction of the TNF level in BALF”.

These data come from patent US9006185B2, “Use of cell-permeable peptide inhibitors of the JNK signal transduction pathway for the treatment of various diseases” (Xigen Inflammation Ltd., priority 2008, dated 2015).
